These results are taken from ChEMBL document CHEMBL1135364, “Synthesis and structure-activity relationships of oxime neurokinin antagonists: discovery of potent arylamides” (Bioorg Med Chem Lett, 2002).

Assay [1] addresses T1, Substance-P receptor (Homo sapiens, UniProt P25103). In words: Tested for binding affinity against neurokinin 1 (NK1) receptor.
Assay [2] has as its target T2, Substance-K receptor (Homo sapiens) (UniProt P21452).
T2 sequence (whole entry): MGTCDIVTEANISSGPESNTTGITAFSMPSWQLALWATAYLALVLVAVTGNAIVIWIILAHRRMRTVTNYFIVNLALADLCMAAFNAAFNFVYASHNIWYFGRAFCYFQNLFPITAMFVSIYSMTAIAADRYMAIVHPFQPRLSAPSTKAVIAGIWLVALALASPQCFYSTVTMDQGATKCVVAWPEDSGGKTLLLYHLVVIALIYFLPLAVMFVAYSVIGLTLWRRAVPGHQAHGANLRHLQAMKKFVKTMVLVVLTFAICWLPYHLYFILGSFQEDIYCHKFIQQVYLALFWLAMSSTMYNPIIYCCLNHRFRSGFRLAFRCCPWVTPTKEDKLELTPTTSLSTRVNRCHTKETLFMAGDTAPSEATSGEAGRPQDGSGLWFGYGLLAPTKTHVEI
Description: Tested for binding affinity of compound against Neurokinin 2 (NK2) receptor at 1 uM.

Assay [3] concerns the target T1, Substance-P receptor. Description: Affinity for human Neurokinin 1 (NK1) receptor expressed in CHO cells at 1 uM. It is filed as cell-based.
Assay [4] has as its target T3, Substance-K receptor (Homo sapiens, UniProt P21452).
T3 sequence (P21452 whole entry): T2 sequence (whole entry)
In words: Binding affinity test against Neurokinin 2 (NK2) receptor.

Assay [5] deals with T3, Substance-K receptor. In words: Tested for binding affinity of compound against Tachykinin receptor 2.

T1 sequence (P25103 whole entry): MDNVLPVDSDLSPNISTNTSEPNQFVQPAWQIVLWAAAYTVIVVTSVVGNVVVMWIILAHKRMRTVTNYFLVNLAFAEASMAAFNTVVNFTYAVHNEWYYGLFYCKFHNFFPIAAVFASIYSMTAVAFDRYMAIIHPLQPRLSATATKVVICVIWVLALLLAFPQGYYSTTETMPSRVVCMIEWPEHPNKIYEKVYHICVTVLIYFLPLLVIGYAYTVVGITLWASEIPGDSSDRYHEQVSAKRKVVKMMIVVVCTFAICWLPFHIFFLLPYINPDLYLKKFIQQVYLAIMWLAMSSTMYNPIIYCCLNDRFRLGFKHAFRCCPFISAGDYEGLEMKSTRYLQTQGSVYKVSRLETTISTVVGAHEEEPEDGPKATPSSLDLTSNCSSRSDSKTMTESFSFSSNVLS

On to `CO/N=C(\CCc1cc(C(F)(F)F)cc(C(F)(F)F)c1)C(CCN1CCC(O)(c2ccccc2)CC1)c1ccc(Cl)c(Cl)c1` (stereo not given), for which the Ki at Substance-P receptor [1] was determined as 23 nM. Also, the inhibition in assay [2] worked out at 51%.

As for `CO/N=C(\COc1cc(C(F)(F)F)cc(C(F)(F)F)c1)C(CCN1CCC(O)(c2ccccc2)CC1)c1ccc(Cl)c(Cl)c1` (stereo not given), at Substance-P receptor [1], the Ki worked out at 81 nM. The inhibition in assay [2] stood at 31%.

The compound `CO/N=C(\COCc1cc(C(C)(C)C)cc(C(C)(C)C)c1)C(CCN1CCC(O)(c2ccccc2)CC1)c1ccc(Cl)c(Cl)c1` (stereo not given) registered an inhibition against Substance-P receptor [3] of 19%. On Substance-K receptor [4], this compound registered an inhibition constant Ki of 130 nM.

For the compound `CO/N=C(\COCc1ccc2ccccc2c1)C(CCN1CCC(O)(c2ccccc2)CC1)c1ccc(Cl)c(Cl)c1` (stereo not given), the inhibition on Substance-P receptor [3] worked out at 37%. The same compound registered a Ki on Substance-K receptor [4] of 12 nM.

`CO/N=C(\COCc1ccccc1)C(CCN1CCC(O)(c2ccccc2)CC1)c1ccc(Cl)c(Cl)c1` (stereo not given): the inhibition on Substance-P receptor [3] was 33%. Moreover, at Substance-K receptor [4], the Ki is 40 nM.

Turning to `CO/N=C(\COCc1ccc(C(C)(C)C)cc1)C(CCN1CCC(O)(c2ccccc2)CC1)c1ccc(Cl)c(Cl)c1` (stereo not given), on Substance-P receptor [3], the inhibition is 6%. The compound also showed an inhibition constant Ki on Substance-K receptor [4] of 4 nM.

With `CO/N=C(\COCc1ccc2sc(C)nc2c1)C(CCN1CCC(O)(c2ccccc2)CC1)c1ccc(Cl)c(Cl)c1` (stereo not given), at Substance-P receptor [3], the inhibition was determined as 48%. For the same compound, the inhibitory constant (Ki) on Substance-K receptor [4] is 21 nM.

Take `CO/N=C(/COCc1cc(C(F)(F)F)cc(C(F)(F)F)c1)C(CCN1CCC(O)(c2ccccc2)CC1)c1ccc(Cl)c(Cl)c1` (stereo not given): the affinity at Substance-K receptor [5] corresponds to a Ki of 21 nM.
